Measured values published in paper PMC12423301, “Astrocytic monoamine oxidase B (MAOB)–gamma-aminobutyric acid (GABA) axis as a molecular brake on repair following spinal cord injury” (Signal Transduction and Targeted Therapy, 2025).

Tests used:
APP/PS1 transgenic mice [1] = assay: Tonic GABA current, neuronal firing and DAO compensation in APP/PS1 mice; format: in vivo, mouse; conditions: 4-week repeated dosing test
[2] = similar drugs; ref ZELAPAR®, XADAGO®; cited from earlier work
APP/PS1 transgenic mice [3] = assay: Cognitive tests in APP/PS1 transgenic mice; format: in vivo, mouse; conditions: 4-week repeated dosing test
[4] = system: primary cultured spinal cord astrocytes; assay: BDNF expression in cultured astrocytes (qPCR, Western blot); format: cell-based, mouse

SMILES | neuronal firing (APP/PS1 transgenic mice [1]; 2nd week) | neuronal firing (APP/PS1 transgenic mice [1]; 4th week) | Tmax [2] | cognitive function (APP/PS1 transgenic mice [3]) | mRNA expression level of BDNF ([4]; GABA 100 μM, 24 h) | proBDNF expression (Western blotting) ([4]; GABA-treated)
C#CCN(C)[C@H](C)Cc1ccccc1 [selegiline, reference compound] | started to decrease | completely lost | 45 min | cognitive function decline | – | –
NCCCC(=O)O [GABA, γ-aminobutyric acid] | – | – | – | – | significantly downregulated | reduction
